Results published in US20100330602A1, “Use of Soluble Galectin-3 (Gal-3) for Cancer Treatment” (Emory University, priority 2006, published 2010).
Peptide text beside a SMILES is read from it. * marks the point of attachment. Cbz = O=C(OCc1ccccc1)*; CH2F = FC*

Columns and labels:
[1] = tested on: Gal-3 secretion in SF767 cells; assay: Western blot for secreted Gal-3 in SF767 glioma cells; assay type: cell-based, human; conditions: SF767, VP16 alone
Protocol: FIG. 2E. […] This effect is inhibited by p53 siRNA (lanes 5,6) but not control siRNA (lanes 3,4).
FIG. 23. […] This effect is inhibited by siRNAs for TSAP6 (lane 2), p53 (lane 3) and Fas (lane 4), but not control siRNA (lane 1).
Immunoblots were performed on cell lysates (lysed in 8 M urea, 4% SDS, in 10 mM Tris (pH 7.4)), from indicated cells. The conditioned media was precipitated by 15% TCA precipitation for 2 h at 4° C., washed twice with ice-cold acetone, and then resuspended in lysis buffer (8M urea, 4% SDS, 100 mM protease inhibitor cocktail (Roche, Germany)). Electrophoresis and blotting was performed using the Criterion system (BioRad; CA, USA) on. TCA precipitated proteins. Western blots were probed with antibodies for p53 (M7001-clone DO-7; DAKO; 1:500), p21 (MS-891-P1; Neomarkers, CA, USA; 1:250), Gal-3 (ab14364; Santa Cruz, Calif., USA; 1:500), HA (Roche; Germany, 1:500), caspase-3 (1:5000), α-TSP1 (MS-421-P1-Ab-4; NeoMarkers; CA, USA; 1:1000), and PARP (556494; BD Biosciences; CA, USA, 1:1000). Actin was used as a loading control (sc-1615, Santa Cruz Biotechnology; CA; 1:500). Blots were visualized by enhanced chemiluminescence (Pierce, IL, USA). For apoptosis analysis, cells were treated with either media containing secreted Gal-3 or with both secreted Gal-3 and 50 μm Z-VAD-FMK general caspase inhibitor (BD Biosciences; CA, USA). […]

SF767 cells = assay: Cell death in SF767 cells in response to VP16; assay type: cell-based, human; conditions: VP16 alone or with control siRNA
Source text: The levels of cell death in SF767 cells in response to VP16 treatment in the presence of either p53 or TSAP-6 specific siRNAs as well as in the presence of anti-Gal-3 antibody were further determined. […] This effect was inhibited in the presence of specific siRNAs for p53 (FIGS. 2E and H) or TSAP-6 as well as in the presence of anti-Gal-3 antibody. The inhibition mediated by TSAP6 siRNA was not complete, likely reflecting the incomplete TSAP6 inhibition by this siRNA (FIG. 2E).

[2] = tested on: Caspase-3 and PARP cleavage in LN229 cells; assay: Western blot for caspase-3 and PARP cleavage after sGal-3 treatment; assay type: cell-based, human
Protocol: (§1) FIG. 4: Secreted Gal-3 induces apoptosis in tumor cells. FIG. 4A. Bright field pictures and quantification of LN229 glioma cells after 12 h treatment with either secreted Gal-3 alone or in combination with 50 μM Z-VAD general caspase inhibitor. Note inhibition of sGal-3-mediated cell death when cells are co-treated with Z-VAD. Results were quantified by crystal violet assay and experiments repeated three times in triplicate. Similar results were obtained with LN-Z308 cells (data not shown). FIG. 4B.
(§2) Immunoblots were performed on cell lysates (lysed in 8 M urea, 4% SDS, in 10 mM Tris (pH 7.4)), from indicated cells. The conditioned media was precipitated by 15% TCA precipitation for 2 h at 4° C., washed twice with ice-cold acetone, and then resuspended in lysis buffer (8M urea, 4% SDS, 100 mM protease inhibitor cocktail (Roche, Germany)). Electrophoresis and blotting was performed using the Criterion system (BioRad; CA, USA) on. TCA precipitated proteins. […]
(§3) LN229 and LN-Z308 glioma cells were treated with either extracellular Gal-3 alone, or in combination with the Z-VAD general caspase inhibitor and analyzed the cells for apoptotic features.

[3] = tested on: LN229 and LN-Z308 glioma cells; assay: Apoptotic features after sGal-3 treatment with or without Z-VAD; assay type: cell-based, human
Protocol: as §1, §2, §3

[4] = tested on: four different human glioma cell lines; assay: Recombinant Gal-3 added to culture medium, cell number; assay type: cell-based
Protocol: FIG. 6D. Purified recombinant human Gal-3 (Research Diagnostics Inc.) induces cytotoxicity in four glioma cell lines in a dose-response fashion (0, 5, 12.5, 25, 50, 100, 150 ng/ml) within 48 hrs.
A comparison of rGal3 with naturally secreted Gal3 evidences post-translational modifications in the naturally secreted one (data not shown).

[5] = tested on: tumors of sGal-3 expressing tet-inducible clones #12 and #21; assay: In vivo mouse tumorigenicity assay (subcutaneous xenograft); design: species or system athymic nude mice
Protocol: FIG. 7C. sGal-3 inhibits tumor growth. Six-week old female athymic nude mice (NCI) were injected subcutaneously with 5×10^6 cells of clone #12 and divided into two groups (n=8). Similar results were obtained with clone #21. One group was left untreated while the second group was given 2 mg/ml Dox in drinking water containing 5% sucrose to induce expression of sGal-3 one week after tumor cell implantation until termination of the experiment. The length (a) and width (b) of the tumors were measured weekly and tumor volume was calculated in mm^3=(a×b^2)/2.
Six-week old female athymic nude mice (NCI) (n=8/group) were injected subcutaneously with 5×10^6 cells of the indicated cell lines. 2 mg/ml Dox was delivered orally in drinking water containing 5% sucrose to induce expression and secretion of Gal-3 one week post injection of tumor cells until termination of the experiment. The length (a) and width (b) of the tumors were measured weekly and tumor volume was calculated in mm^3=(a×b^2)/2.
To test directly the effect of sGal-3 on tumor growth in vivo, a nu/nu mouse xenograft model system was used. Cells (5×10^6) from the sGal-3 expressing tet-inducible clones #12 and #21 were injected subcutaneously in the mice and sGal-3 expression was induced one week post tumor cell implantation in half of the injected mice by feeding dox in the drinking water for 12 weeks (9 mice/group). Only 4 of the 18 tumors (clone #12) in the sGal-3 expressing group developed while 14/18 tumors grew in the control group. […] Immunohistochemistry for Gal-3 expression in excised tumors from mice treated with doxycycline confirmed that Gal-3 was expressed (FIG. 7D).

LN229 glioma cells = assay: Crystal violet assay, CM of sGal-3 transfected 293 cells; assay type: cell-based, human; conditions: CM of transfected 293 cells as source of sGal-3, after 48 h
Protocol: (§4) 293 cells were transfected using GenePORTER reagent (Gene Therapy Systems; CA, USA) with the pUMVC7-sGal-3 plasmid and switched over to serum free media 16 h later. The CM was collected after 48 h, floating cells removed through centrifugation at 1000 g, and filtrated through a 0.8 μm filter (Corning; NY, USA). Cells were plated at 5,000 cells per well in 24-well plates and treated with serial dilutions of CM from either pCMV-LacZ or pUMVC7-sGal-3 transfected 293 cells. Relative cell number compared to serum free media control was quantified in triplicate 24 h and 48 h post treatment using either an MTT kit (Roche; IN, USA) or by crystal violet assay by acquiring absorbance at 575 nm using a spectrophotometer.
(§5) After cleavage of the secretion signal, the sGal-3 amino acid sequence is identical to the endogenous secretion product. It is nevertheless possible that sGal3 will have different post-translational modifications that may vary between the exosome-mediated secretory pathway and the classical secretion pathway. To verify the functionality of the construct, the construct was transfected in 293-CLH cells where it mediated a robust increase in the expression and secretion of Gal-3 without intracellular accumulation (FIG. 6A). Using the CM of transfected 293 cells as a source of sGal-3, its effect on the growth of SF767, LN-Z308 and LN229 glioma cells was determined using a crystal violet assay. […] Cells incubated with serum free medium or CM from 293 cells transfected with control pCMV-lacZ plasmid were unaffected (FIG. 6B).

SF767 glioma cells = assay: as above; assay type: cell-based, human; conditions: CM of transfected 293 cells as source of sGal-3, after 48 h
Protocol: as §4, §5

LN-Z308 glioma cells = assay: as above; assay type: cell-based, human; conditions: CM of transfected 293 cells as source of sGal-3, after 48 h
Protocol: as §4, §5

[6] = tested on: MD468 breast cancer cell line; assay: as above; assay type: cell-based
Protocol: as §4
(§6) To examine whether the cytotoxic effect of Gal-3 was limited to glioma or whether it represents a more general anti-cancer property, two breast cancer (MD468 and MCF7), two lung cancer (A549 and H1289) and two prostate cancer (LnCaP and PC3) cell lines were tested using the same assay and found all of them to be sensitive to sGal-3 presence in the medium (FIG. 6B).

[7] = tested on: PC3 prostate cancer cell line; assay: as above; assay type: cell-based
Protocol: as §4, §6

[8] = tested on: H1289 lung cancer cell line; assay: as above; assay type: cell-based
Protocol: as §4, §6

[9] = tested on: LnCaP prostate cancer cell line; assay: as above; assay type: cell-based
Protocol: as §4, §6

[10] = tested on: A549 lung cancer cell line; assay: as above; assay type: cell-based
Protocol: as §4, §6

[11] = tested on: MCF7 breast cancer cell line; assay: as above; assay type: cell-based
Protocol: as §4, §6

[12] = tested on: LN229-L16-derived dox-inducible sGal-3 clones; assay: Dox-induced sGal-3 expression in cell culture; assay type: cell-based, human; conditions: within 3-5 days in cell culture
Protocol: Five μg of the plasmid DNA and 5 μl of GenePORTER reagent (Gene Therapy Systems; San Diego, Calif.) were used for each transfection. One μg of pcDNA3.1 containing the geneticin (G418)-resistance cassette was co-transfected at a […], when generating stable clones. Tetracycline-inducible sGal-3 transfected clones were generated in L16 glioma cells (Tet-on clone derived from LN229) by selecting for G418 resistance (1,200 μg/ml). The individual clones were assessed for expression of sGal-3 after 48 h dox induction by western blot analysis. For TSAP6 siRNA, HEK293 cells were transfected with either pcDNA3.1 vectors containing TSAP6 and Galectin-3 alone or in combination with […] or TSAP6 (pHYDE) siRNA (Santa Cruz, Calif., USA) using GenePORTER reagent (Gene Therapy Systems; CA, USA). Cells were allowed to recover overnight in 10% FBS containing DMEM before switching them to serum free media. Cells and CM were collected after 24 hours in serum free media.
To test this concept, dox-inducible sGal-3 clones were generated with variable expression levels in LN229-L16 cells (rtTA expressing) (see materials and methods) (FIG. 7A).

[13] = tested on: human dermal microvascular endothelial cells (HDMEC); assay: Crystal violet assay, CM of sGal-3 transfected 293 cells, normal cells; assay type: cell-based
Protocol: as §4, §6

[14] = tested on: human foreskin fibroblasts (HFF); assay: as above; assay type: cell-based
Protocol: as §4, §6

COc1cc([C@@H]2c3cc4c(cc3[C@@H](O[C@@H]3O[C@@H]5CO[C@@H](C)O[C@H]5[C@H](O)[C@H]3O)[C@H]3COC(=O)[C@H]23)OCO4)cc(OC)c1O [Etoposide, etoposide]
secretion of Gal-3 in the media [1]: enhanced secretion of Gal-3
levels of cell death (SF767 cells): marked levels of apoptosis

COC(=O)C[C@H](NC(=O)[C@H](C)NC(=O)[C@@H](NC(=O)OCc1ccccc1)C(C)C)C(=O)CF [Z-VAD, Z-VAD-FMK, reference compound] (Cbz-Val-Ala-Asp(OMe)-CH2F)
effect on sGal-3-induced Caspase-3 and PARP cleavage ([2]; co-treatment with 50 μM Z-VAD): neutralized
effect on sGal-3-mediated cell death ([3]; co-treatment with 50 μM Z-VAD): inhibited

rGal-3: Purified recombinant human Gal-3 (Research Diagnostics Inc.)
potency compared with naturally secreted Gal-3 [4]: less than that found naturally secreted by human cells
cell number ([4]; increasing amounts (0, 5, 12.5, 25, 50, 100, 150 ng/ml) over 48 h): dose-dependent decrease in cell number

sGal-3: constitutively secreted soluble Gal-3; Gal-3 cDNA fused to classical secretion signal peptide from the plasminogen activator gene, produced in 293 cells
average tumor volume at termination versus controls ([5]; clone #12, p<0.02): over six-fold smaller
tumors developed ([5]; clone #12, sGal-3 induced by dox in drinking water for 12 weeks, control 14/18): 4 of the 18
tumor size at termination, fold smaller than control group ([5]; clone #21, on average): 4 fold
tumors grew ([5]; clone #21, sGal-3 expression, control 16/18): 6 of 18
Caspase-3 and PARP cleavage ([2]; within 12 h of sGal-3 treatment): Caspase-3 and PARP cleavage
decrease in cell number (LN229 glioma cells): greater than 75%
decrease in cell number (SF767 glioma cells): greater than 75%
decrease in cell number (LN-Z308 glioma cells): greater than 75%
sensitivity to sGal-3 presence in the medium [6]: sensitive
sensitivity to sGal-3 presence in the medium [7]: sensitive
sensitivity to sGal-3 presence in the medium [8]: sensitive
sensitivity to sGal-3 presence in the medium [9]: sensitive
sensitivity to sGal-3 presence in the medium [10]: sensitive
sensitivity to sGal-3 presence in the medium [11]: sensitive
cell death upon induction of sGal-3 [12]: cell death in all three clones
apoptotic features ([3]; sGal-3 alone, as early as 12 h post treatment): membrane blebbing, and cell death
viability in response to secreted Gal-3 in the media [13]: did not show decreased viability
viability in response to secreted Gal-3 in the media [14]: did not show decreased viability
